Patent US20250263496A1, “Neutrophil-Activating Therapy for the Treatment of Cancer” (The Board of Trustees of the Leland Stanford Junior …, priority 2024, published 2025)

Columns and labels:
B16 cells = test: Mouse in vitro cytotoxicity (EuTDA), B16 cells co-cultured with neutrophils; format: cell-based; conditions: neutrophils from treated tumors stimulated with neutrophil-activating therapy
Description: B16 tumors were treated by intratumoral injection of TNF+anti-CD40+anti-gp75 and harvested 12 hours post-treatment. Tumors were dissected away from any surrounding fat, minced, and digested in 5 mg/ml collagenase IV (Worthington) plus 0.1 mg/ml DNase I (Sigma) with continuous mixing by magnetic stir bars for 20 minutes at 37° C. in RPMI-1640 (Gibco) with 2% FBS. Following digestion, tissue was mashed through a […] cell strainer (Falcon) and washed. For some studies, bone marrow was harvested by grinding bones from tumor-naive untreated mice in a mortar and pestle and mashing through a […] strainer (Falcon). Neutrophils were isolated from tumor and bone marrow samples with the MojoSort Mouse Ly6G Selection Kit (BioLegend), according to the manufacturer's instructions, and used in the cytotoxicity assay.
Cytotoxicity assays were conducted using the EuTDA assay from the DELFIA TRF cytotoxicity kit (PerkinElmer) according to the manufacturer's instructions. Briefly, B16 cells were labeled for 10 minutes with BATDA, and 5×10^3 labeled cells were added per well to a 96 well V-bottom plate in RPMI-1640. Neutrophils were added at a ratio of 10:1 unless otherwise stated. All co-cultures were conducted in the presence of TNF (10 ng/ml), anti-CD40 (1 μg/ml), anti-gp75 (1 μg/ml), and 10% active mouse C57BL/6 complement serum (Innovative Research), except where indicated otherwise. Mouse C57BL/6 complement serum was heat-inactivated for 40 minutes at 57° C. where inactivation is specified. In some experiments, mouse IgG2a isotype control (1 μg/ml, isotype control for anti-gp75, clone C1.18.4, Bio X Cell), anti-mouse CD16/CD32 (10 μg/ml, clone 2.4G2, Bio X Cell), recombinant mouse C5a (50 nM, R&D Systems), anti-C5a (25 μg/ml, clone 295108, R&D Systems), rat IgG2a isotype control (25 μg/ml, isotype control for anti-C5a, clone 2A3, Bio X Cell), anti-C5AR1 (5 μg/ml, clone 20/70, BioLegend), rat IgG2b isotype control (5 μg/ml, isotype control for anti-C5AR1, clone LTF-2, Bio X Cell), SC57461A (10 μM, Cayman Chemical), CP-105696 (1 μM, Sigma), topiroxostat (10 μM, MedChem Express), or DMSO (vehicle for SC57461A, CP-105696, and topiroxostat) were added to the wells with the B16 and neutrophils. After 4 hours of co-culture at 37° C., supernatant was taken from the wells, Europium solution was added, and TDA released from lysed B16 cells was detected by […] on a Victor X4 fluorescence microplate reader (PerkinElmer). Percent maximal lysis was determined by calculating the specific release of TDA using the formula: (experimental release−spontaneous release)/(maximum release −spontaneous release), where spontaneous release was determined by wells containing no neutrophils and maximum release was determined by wells with lysis buffer added.
For trogocytosis studies investigating transfer of tumor-binding antibody, anti-gp75 labeled with AF647 (clone TA99, Novus Biologicals) was used in place of unlabeled anti-gp75. For studies investigating transfer of B16 cell membrane, DiD′ Solid (ThermoFisher Scientific) was reconstituted in DMSO at 10 mg/ml and diluted to a working solution of 5 μg/ml in serum-free DMEM. B16 cells were labeled in this solution for 20 minutes at 37° C. at 1×10^6 cells/ml. Labeled B16 was washed 3 times in warm media before being added to the co-culture wells with the neutrophils. Following co-culture, flow cytometry was used to identify DiD signal in neutrophils.

LTB4 = LTB4 ELISA of B16 tumors; format: in vivo, mouse; conditions: agent given prior to neutrophil-activating therapy
Description: LTB4 ELISA. Tumors were dissected away from surrounding fat 24 hours post-treatment and lysed in PBS using 3 mm zirconium beads (Benchmark Scientific) in the BeadBug Microtube Homogenizer (Benchmark Scientific) for 2 cycles of 45 seconds at 3000 rpm. Crude lysate was centrifuged for 15 minutes at 16000×g at 4° C. to obtain clarified lysate. Clarified lysate was deproteinized by ethanol precipitation by adding 4 volumes of 100% ethanol, incubating on ice for 5 minutes, and centrifuging for 10 minutes at 3000×g at 4° C. Deproteinized supernatant was transferred to a new tube, ethanol was removed by evaporation at room temperature, and samples were brought to the appropriate volume in ELISA assay buffer. LTB4 content was determined with the Leukotriene B4 ELISA kit (Cayman Chemical 520111) according to the manufacturer's instructions and read with a Victor X4 fluorescence microplate reader (PerkinElmer).
Ex vivo neutrophil LTB4 assay. B16 tumors were harvested from mice 12 hours after treatment with TNF+anti-CD40+anti-gp75 and digested with collagenase IV and DNase I as described above. […] Following the incubation, the supernatant was collected, centrifuged to remove cells and debris, and analyzed for LTB4 using the Leukotriene B4 ELISA kit (Cayman Chemical 520111) as described above.

In the case of N#Cc1cc(-c2n[nH]c(-c3ccncc3)n2)ccn1 [topiroxostat], the “effect of agent on ex vivo killing of tumor cells by neutrophils” value (B16 cells) is reported as “inhibited ex vivo tumor cell killing” and the “effect of agent on LTB4 production” value (LTB4) is reported as “did not prevent”.
